# Measured values taken from the supplement of paper PMC10307832.
# Compound: O=c1ncccn1[C@@H]1O[C@H](CO)[C@@H](O)[C@H]1O [Zebularine] + N=C(N)NC(=N)NCCc1ccccc1 [Phenformin] (partner 250 µM)
# Test: relative viability (nuclei count vs DMSO), 5 days (fraction); higher = more cells survive
# Details: first compound 1 µM
# Summary of the method: (§1)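 For relative viability, nuclei counts in treated wells were divided by those in vehicle wells. Lung cancer cell lines had been pin-tool dosed in 1536-well plates the day after seeding and cultured for 5 days, then fixed and stained in one step (final 0.05% Triton X-100, 1% formaldehyde, 1 ug/ml Hoechst) and imaged at 4×. Doses were one drug alone or a fixed anchor-drug dose plus five library-drug doses (not always all listed) in √10 steps, and values are duplicate-plate medians.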
row,Cell Line,relative viability
1,SW 900,0.809
2,HCC-78,0.678
3,NCI-H322M,0.816
4,LCLC-97TM1,0.401
5,NCI-H2009,0.515
6,A-427,0.361
7,NCI-H441,0.803
8,NCI-H661,0.279
9,NCI-H1734,0.444
10,NCI-H460,0.601
11,NCI-H2347,0.583
12,SK-LU-1,0.633
13,NCI-H1395,0.455
14,201T,0.527
15,NCI-H1915,0.373
16,HCC-827,0.486

row,Cell Line,relative viability
1,LXF-289,0.512
2,NCI-H23,0.847
3,NCI-H647,0.539
4,CAL-12T,0.569
5,NCI-H1651,0.347
6,EPLC-272H,0.272
7,NCI-H2228,0.313
8,NCI-H1792,0.44
9,NCI-H1355,0.507
10,NCI-H3122,0.434
11,NCI-H1437,0.333
12,NCI-H1755,0.671
13,NCI-H2023,0.475
14,HCC-15,0.532
15,NCI-H1793,0.4
16,PC-14,0.805

# Same assay, conditions: first compound 3.162 µM
row,Cell Line,relative viability
1,SW 900,0.559
2,HCC-78,0.728
3,NCI-H322M,0.747
4,LCLC-97TM1,0.413
5,NCI-H2009,0.483
6,A-427,0.302
7,NCI-H441,0.73
8,NCI-H661,0.269
9,NCI-H1734,0.363
10,NCI-H460,0.592
11,NCI-H2347,0.38
12,SK-LU-1,0.552
13,NCI-H1395,0.454
14,201T,0.485
15,NCI-H1915,0.381
16,HCC-827,0.396

row,Cell Line,relative viability
1,LXF-289,0.503
2,NCI-H23,0.821
3,NCI-H647,0.48
4,CAL-12T,0.464
5,NCI-H1651,0.401
6,EPLC-272H,0.286
7,NCI-H2228,0.313
8,NCI-H1792,0.281
9,NCI-H1355,0.45
10,NCI-H3122,0.389
11,NCI-H1437,0.311
12,NCI-H1755,0.612
13,NCI-H2023,0.443
14,HCC-15,0.496
15,NCI-H1793,0.39
16,PC-14,0.28

# Same assay, conditions: first compound 10 µM
row,Cell Line,relative viability
1,SW 900,0.349
2,HCC-78,0.496
3,NCI-H322M,0.568
4,LCLC-97TM1,0.322
5,NCI-H2009,0.425
6,A-427,0.262
7,NCI-H441,0.366
8,NCI-H661,0.28
9,NCI-H1734,0.26
10,NCI-H460,0.364
11,NCI-H2347,0.297
12,SK-LU-1,0.313
13,NCI-H1395,0.398
14,201T,0.327
15,HCC-827,0.45
16,LXF-289,0.41
17,NCI-H23,0.423
18,NCI-H647,0.178
19,CAL-12T,0.535
20,NCI-H1651,0.273
21,EPLC-272H,0.227
22,NCI-H2228,0.182
23,NCI-H1792,0.119
24,NCI-H1355,0.425
25,NCI-H3122,0.332
26,NCI-H1437,0.229
27,NCI-H1755,0.592
28,NCI-H2023,0.213
29,HCC-15,0.247
30,PC-14,0.167

# Same assay, conditions: first compound 31.62 µM
row,Cell Line,relative viability
1,SW 900,0.65
2,HCC-78,0.74
3,NCI-H322M,0.73
4,LCLC-97TM1,0.256
5,NCI-H2009,0.435
6,A-427,0.279
7,NCI-H441,0.309
8,NCI-H661,0.275
9,NCI-H1734,0.282
10,NCI-H460,0.127
11,NCI-H2347,0.233
12,SK-LU-1,0.493
13,NCI-H1395,0.361
14,201T,0.492
15,NCI-H1915,0.379
16,HCC-827,0.379

row,Cell Line,relative viability
1,LXF-289,0.406
2,NCI-H23,0.75
3,NCI-H647,0.22
4,CAL-12T,0.583
5,NCI-H1651,0.369
6,EPLC-272H,0.255
7,NCI-H2228,0.323
8,NCI-H1792,0.258
9,NCI-H1355,0.403
10,NCI-H3122,0.385
11,NCI-H1437,0.328
12,NCI-H1755,0.684
13,NCI-H2023,0.23
14,HCC-15,0.417
15,NCI-H1793,0.237
16,PC-14,0.124

# Same assay, conditions: first compound 100 µM
row,Cell Line,relative viability
1,SW 900,0.407
2,HCC-78,0.387
3,NCI-H322M,0.671
4,LCLC-97TM1,0.272
5,NCI-H2009,0.336
6,A-427,0.213
7,NCI-H441,0.396
8,NCI-H661,0.264
9,NCI-H1734,0.24
10,NCI-H460,0.0588
11,NCI-H2347,0.293
12,SK-LU-1,0.33
13,NCI-H1395,0.372
14,201T,0.368
15,NCI-H1915,0.349
16,HCC-827,0.278

row,Cell Line,relative viability
1,LXF-289,0.26
2,NCI-H23,0.77
3,NCI-H647,0.12
4,CAL-12T,0.391
5,NCI-H1651,0.256
6,EPLC-272H,0.238
7,NCI-H2228,0.221
8,NCI-H1792,0.189
9,NCI-H1355,0.294
10,NCI-H3122,0.352
11,NCI-H1437,0.376
12,NCI-H1755,0.53
13,NCI-H2023,0.208
14,HCC-15,0.308
15,NCI-H1793,0.168
16,PC-14,0.0723

# Compound: CC(C)CCN1c2nc(Nc3cc(F)c(O)c(F)c3)ncc2N(C)C(=O)C1C [BI-D1870] + CC(=O)c1c(C)c2cnc(Nc3ccc(N4CCNCC4)cn3)nc2n(C2CCCC2)c1=O [Palbociclib] (partner 0.5 µM)
# Test: as above
# Details: first compound 0.04 µM
# Summary of the method: as §1
row,Cell Line,relative viability
1,SW 900,0.697
2,HCC-78,0.456
3,NCI-H322M,0.492
4,LCLC-97TM1,0.262
5,NCI-H2009,0.22
6,A-427,0.59
7,NCI-H441,0.266
8,NCI-H661,0.459
9,NCI-H1734,0.334
10,NCI-H460,0.226
11,NCI-H2347,0.385
12,SK-LU-1,0.384
13,NCI-H1395,0.649
14,201T,0.358
15,NCI-H1915,0.577
16,HCC-827,0.444

row,Cell Line,relative viability
1,LXF-289,0.577
2,NCI-H23,0.568
3,NCI-H647,0.488
4,CAL-12T,0.593
5,NCI-H1651,0.473
6,EPLC-272H,0.323
7,NCI-H2228,0.97
8,NCI-H1792,0.635
9,NCI-H1355,0.384
10,NCI-H3122,0.187
11,NCI-H1437,0.304
12,NCI-H1755,0.432
13,NCI-H2023,0.424
14,HCC-15,0.701
15,NCI-H1793,0.369
16,PC-14,0.56

# Same assay, conditions: first compound 0.1265 µM
row,Cell Line,relative viability
1,SW 900,0.478
2,HCC-78,0.489
3,NCI-H322M,0.475
4,LCLC-97TM1,0.217
5,NCI-H2009,0.169
6,A-427,0.488
7,NCI-H441,0.21
8,NCI-H661,0.392
9,NCI-H1734,0.302
10,NCI-H460,0.154
11,NCI-H2347,0.426
12,SK-LU-1,0.361
13,NCI-H1395,0.603
14,201T,0.339
15,NCI-H1915,0.504
16,HCC-827,0.431

row,Cell Line,relative viability
1,LXF-289,0.583
2,NCI-H23,0.47
3,NCI-H647,0.342
4,CAL-12T,0.399
5,NCI-H1651,0.503
6,EPLC-272H,0.358
7,NCI-H2228,0.771
8,NCI-H1792,0.613
9,NCI-H1355,0.368
10,NCI-H3122,0.176
11,NCI-H1437,0.336
12,NCI-H1755,0.413
13,NCI-H2023,0.279
14,HCC-15,0.64
15,NCI-H1793,0.274
16,PC-14,0.468

# Same assay, conditions: first compound 0.4 µM
row,Cell Line,relative viability
1,SW 900,0.511
2,HCC-78,0.405
3,NCI-H322M,0.461
4,LCLC-97TM1,0.171
5,NCI-H2009,0.229
6,A-427,0.532
7,NCI-H441,0.173
8,NCI-H661,0.419
9,NCI-H1734,0.337
10,NCI-H460,0.135
11,NCI-H2347,0.407
12,SK-LU-1,0.329
13,NCI-H1395,0.64
14,201T,0.362
15,NCI-H1915,0.469
16,HCC-827,0.421

row,Cell Line,relative viability
1,LXF-289,0.598
2,NCI-H23,0.546
3,NCI-H647,0.463
4,CAL-12T,0.34
5,NCI-H1651,0.494
6,EPLC-272H,0.306
7,NCI-H2228,0.688
8,NCI-H1792,0.679
9,NCI-H1355,0.403
10,NCI-H3122,0.211
11,NCI-H1437,0.309
12,NCI-H1755,0.438
13,NCI-H2023,0.284
14,HCC-15,0.722
15,NCI-H1793,0.291
16,PC-14,0.474

# Same assay, conditions: first compound 1.265 µM
row,Cell Line,relative viability
1,SW 900,0.536
2,HCC-78,0.462
3,NCI-H322M,0.483
4,LCLC-97TM1,0.217
5,NCI-H2009,0.179
6,A-427,0.555
7,NCI-H441,0.225
8,NCI-H661,0.384
9,NCI-H1734,0.345
10,NCI-H460,0.184
11,NCI-H2347,0.453
12,SK-LU-1,0.404
13,NCI-H1395,0.717
14,201T,0.365
15,NCI-H1915,0.451
16,HCC-827,0.446

row,Cell Line,relative viability
1,LXF-289,0.641
2,NCI-H23,0.525
3,NCI-H647,0.371
4,CAL-12T,0.336
5,NCI-H1651,0.555
6,EPLC-272H,0.288
7,NCI-H2228,0.713
8,NCI-H1792,0.719
9,NCI-H1355,0.446
10,NCI-H3122,0.267
11,NCI-H1437,0.272
12,NCI-H1755,0.481
13,NCI-H2023,0.3
14,HCC-15,0.746
15,NCI-H1793,0.391
16,PC-14,0.356

# Same assay, conditions: first compound 4 µM
row,Cell Line,relative viability
1,SW 900,0.517
2,HCC-78,0.454
3,NCI-H322M,0.501
4,LCLC-97TM1,0.17
5,NCI-H2009,0.148
6,A-427,0.495
7,NCI-H441,0.229
8,NCI-H661,0.358
9,NCI-H1734,0.309
10,NCI-H460,0.121
11,NCI-H2347,0.4
12,SK-LU-1,0.318
13,NCI-H1395,0.638
14,201T,0.356
15,NCI-H1915,0.376
16,HCC-827,0.432

row,Cell Line,relative viability
1,LXF-289,0.558
2,NCI-H23,0.323
3,NCI-H647,0.215
4,CAL-12T,0.203
5,NCI-H1651,0.536
6,EPLC-272H,0.23
7,NCI-H2228,0.627
8,NCI-H1792,0.479
9,NCI-H1355,0.392
10,NCI-H3122,0.216
11,NCI-H1437,0.212
12,NCI-H1755,0.435
13,NCI-H2023,0.207
14,HCC-15,0.681
15,NCI-H1793,0.318
16,PC-14,0.138

# Compound: CC(C)CCN1c2nc(Nc3cc(F)c(O)c(F)c3)ncc2N(C)C(=O)C1C [BI-D1870] + COc1cccc2cc(-c3nc([C@H]4CC[C@H](C(=O)O)CC4)n4ncnc(N)c34)[nH]c12 [OSI-027] (partner 0.5 µM)
# Test: as above
# Details: first compound 0.04 µM
# Summary of the method: as §1
row,Cell Line,relative viability
1,SW 900,0.808
